In experiment [1] the target is T1, MRGPRX2 (Homo sapiens, UniProt Q96LB1).
T1 sequence (Q96LB1 1-330): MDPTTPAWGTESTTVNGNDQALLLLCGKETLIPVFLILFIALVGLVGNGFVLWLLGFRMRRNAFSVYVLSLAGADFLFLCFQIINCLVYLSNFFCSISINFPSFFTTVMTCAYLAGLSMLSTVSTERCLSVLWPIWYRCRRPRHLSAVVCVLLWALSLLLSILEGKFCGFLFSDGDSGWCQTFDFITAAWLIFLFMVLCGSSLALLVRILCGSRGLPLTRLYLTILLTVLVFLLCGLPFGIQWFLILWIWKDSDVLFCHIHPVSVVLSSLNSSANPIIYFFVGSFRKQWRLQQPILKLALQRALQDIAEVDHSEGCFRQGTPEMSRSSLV
Nature of the experiment: MRGPRX2 FLIPR calcium mobilization assay. Also noted: host or cells: CHO-K1. The conditions noted are these: CHO-K1 cells, agonist Cortistatin-14 at EC80, Ca2+ release. It counts as cell-based. On the procedure: Example A. MRGPRX2 FLIPR Calcium Mobilization Assay
Chinese hamster ovary (CHO-K1) cells stably expressing human MRGPRX2 were purchased from Genescript (Piscataway, NJ). The cells were maintained in culture medium (Ham's F-12K) containing 10% (v/v) FBS, 200 μg/mL Zeocin, 100 units/mL penicillin G and 100 μg/mL streptomycin (Life Technologies, Carlsbad, CA). For the assay, the cells were harvested and resuspended with culture medium without Zeocin before plating at 8000 cells per well in 20 μL in 384-well black clear bottom cell culture plates (VWR, Radnor, PA). […] Ca^2+ release was measured with FLIPR Penta with 10 s basal fluorescence measurement, then 12.5 μL of 5× agonist Cortistatin-14 (Tocris, Minneapolis, MN) at final concentration corresponding to the EC80 were added followed with continued fluorescence signal monitoring for an additional 110 s. The base line adjusted (median of first 10s base line) max value of the Relative Fluorescence Unit (RFU) was plotted against compound concentrations. […]

In experiment [2] the target is T1, MRGPRX2. As to the kind of experiment: MRGPRX2 β-Arrestin recruitment assay (PathHunter CHO-K1). Also noted: host or cells: PathHunter CHO-K1. It counts as cell-based. The note with it: PathHunter CHO-K1 cells, agonist Cortistatin 14 0.25 μM. From the text: Example C: MRGPRX2 β-Arrestin Assay
This assay measures compound inhibition of β-Arrestin recruitment, which is part of the G protein-independent pathway that results from the ligand-activated GPCR phosphorylation by specific GPCR kinases. The PathHunter CHO-K1 MRPGRX2 B-Arrestin Cell line stably expressing ProLink tagged MRGPRX2 and Enzyme Acceptor Tagged B-Arrestin was purchased from Eurofins DiscoverX, (Fremont, CA).
The cells were maintained in culture medium from the Europhins DiscoverX Cell Culture Kit-107 which includes FBS, hygromycin B and G418. For the assay, the cells were harvested and were resuspended with Cell Plating Reagent 2 (Eurofins DiscoverX). Cells were added 10000 cells in 25 μL/well to a 384-well black cell culture plate (Greiner VWR, Radnor, PA) which contained 125 nL/well of compound at a selected serially diluted concentration range or DMSO. The plate was incubated at 37° C. with 5% CO2 for 1 h. 2 μL/well of agonist Cortistatin 14 was diluted in Protein Dilution Buffer, (Eurofins DiscoverX) for a final concentration of 0.25 μM, was added and the plate was incubated at 37° C. with 5% CO2 for 90 min. 14 μL/well of Detection Reagent Mix (PathHunter Detection Kit, Eurofins DiscoverX) was added to the plates and further incubated for 1 h in the dark. Plates were read on the PHERAstar microplate reader (BMG Labtech Cary, NC) measuring luminescence 0.1 to 1 s per well. Data was normalized using DMSO only wells and wells with high concentration of reference antagonist as controls. Compound IC50 curves were globally fitted with 3- or 4-parameter Hill equation in a Genedata Screener (Genedata Basel, Switzerland).

Experiment [3] has as its target T1, MRGPRX2. Nature of the experiment: MRGPRX2 IP1 HTRF assay. It counts as cell-based. Also noted: host or cells: CHO-K1. The conditions noted are these: CHO-K1 cells, agonist Cortistatin 14 1 μM, IP1 accumulation. From the text: Example B: MRGPRX2 IP1 HTRF Assay
This assay measures compound inhibition of myo-Inositol 1 phosphate (IP1) accumulation in CHO-K1 cells. Chinese hamster ovary (CHO-K1) cells stably expressing human MRGPRX2 were purchased from GenScript (Piscataway, NJ).
For the HTRF IP1 determination, an IP-One GqKit (Perkin Elmer Cisbio, Waltham, MA), which includes all reagents and buffers in this protocol, was used. The cells were maintained in culture medium (Ham's F-12K) containing 10% (v/v) FBS, and 200 μg/mL Zeocin. For the assay, the cells were harvested and resuspended in culture medium with 2% FBS and without Zeocin, then were passed through a 40 μm filter. Cells were added at 20000 cells in a 5 μL/well to a 384-well white small volume cell culture plate (Greiner VWR, Radnor, PA) which contained 50 nL/well of test compound serially diluted at a selected concentration range in DMSO. 5 μL/well of prepared 2× Stimulation Buffer2 was then added to plates and was incubated at 37° C. with 5% CO2 for 1 h. 5 μL/well of agonist Cortistatin 14 (Bio-TechneR&D Systems, Minneapolis, MN) in 1× Stimulation Buffer 2, for a 1 μM final concentration, was then added to plates and incubated at 37° C. with 5% CO2 for 1 h. 6 μL/well of 1:20 diluted Detection Reagent Mix (d2 and Cryptate) was added to the plates and incubated for 1 h in the dark. Plates were read on the PHERAstar microplate reader (BMG Labtech Cary, NC) to determine the HTRF ratio of the acceptor and donor emission signals. The IP1 concentrations were calculated from a standard curve following the IP-One GQ kit instructions. Wells with DMSO only and wells with high concentration of reference antagonist were used as controls for normalization. Compound IC50 curves were globally fitted with 3- or 4-parameter Hill equation in a Genedata Screener (Genedata Basel, Switzerland).

The target of experiment [4] is T1, MRGPRX2. Nature of the experiment: potency comparison of separated isomers (assay not stated). The note with it: compared with the other separated diastereomer/enantiomer.

For the molecule `CC(CNc1cc(C(F)(F)F)nc2cc(C(F)(F)F)nn12)(c1ccc(F)cc1)C1CNC1` (racemic) [Example 13, N-(2-(Azetidin-3-yl)-2-(4-fluorophenyl)propyl)-2,5-bis(trifluoromethyl)pyrazolo[1,5-a]pyrimidin-7-amine], the IC50 on MRGPRX2 [1] and on MRGPRX2 [2] was 0.1 to 100 nM in each case.

On to `CC(CNc1cc(C(F)(F)F)nc2cc(C(F)(F)F)nn12)(c1ccc(F)cc1)C1CN(/C(N)=N/C#N)C1` (racemic) [Example 14, 3-(1-((2,5-Bis(trifluoromethyl)pyrazolo[1,5-a]pyrimidin-7-yl)amino)-2-(4-fluorophenyl)propan-2-yl)-N′-cyanoazetidine-1-carboximidamide], for which the IC50 at MRGPRX2 [1], at MRGPRX2 [3] and at MRGPRX2 [2] was 0.1 to 100 nM each time.

For `CC(CNc1cc(C(F)(F)F)nc2cc(C(F)(F)F)nn12)(c1ccc(F)cc1)C1CCN(C(=O)NCCO)C1` (single isomer, unassigned) [Example 16, 3-(1-((2,5-Bis(trifluoromethyl)pyrazolo[1,5-a]pyrimidin-7-yl)amino)-2-(4-fluorophenyl)propan-2-yl)-N-(2-hydroxyethyl)pyrrolidine-1-carboxamide], the 50% inhibitory concentration (IC50) on MRGPRX2 [3] and at MRGPRX2 [2] was 0.1 to 100 nM in each case. In addition, the “relative potency of the separated isomer” value at MRGPRX2 [4] is recorded as “more potent”.

Regarding `CC(CNc1cc(C(F)(F)F)nc2cc(C(F)(F)F)nn12)(c1ccc(F)cc1)C1CCN(CC(N)=O)C1` (single isomer, unassigned) [Example 17, 2-(3-(1-((2,5-Bis(trifluoromethyl)pyrazolo[1,5-a]pyrimidin-7-yl)amino)-2-(4-fluorophenyl)propan-2-yl)pyrrolidin-1-yl)acetamide], the IC50 on MRGPRX2 [3] and on MRGPRX2 [2] was 0.1 to 100 nM each time. On MRGPRX2 [4], the “relative potency of the separated isomer” value is recorded as “more potent”.
